From ChEMBL document CHEMBL3046360, “Design, synthesis and preliminary antiviral screening of new N-phenylpyrazole and dihydroisoxazole derivatives” (Med Chem Res, 2010)
Calls of active or inactive are those of the source. The calls are words filed in the database; no cut-off is given here.

What was measured:
[1] = Cytotoxicity against Chlorocebus aethiops (African green monkey) Vero cells after 3 days by microscopic analysis; assay type: cell-based; details: chlorocebus sabaeus
Hepatovirus A [2] = experiment: Antiviral activity against Hepatitis A virus infected Vero cells assessed as reduction in viral plaque at 10 ug/ml after overnight incubation by crystal violet staining; assay type: functional; set-up: scale not given: the % may be the effect or the level left
[3] = system: Human immunodeficiency virus 2; experiment: Antiviral activity against Human immunodeficiency virus type 2 (ISOLATE ROD) infected MT4 cells assessed as inhibition of virus-induced cytopathic effect up to 20 ug/ml after 5 days by MTT assay; assay type: functional, organism-based
Human alphaherpesvirus 1 [4] = experiment: Antiviral activity against Human herpesvirus 1 infected Vero cells assessed as reduction in viral plaque at 20 ug/ml after overnight incubation by crystal violet staining; assay type: functional; set-up: scale not given: the % may be the effect or the level left
[5] = system: Human immunodeficiency virus 1; experiment: Antiviral activity against Human immunodeficiency virus 1 IIIB infected MT4 cells assessed as inhibition of virus-induced cytopathic effect up to 20 ug/ml after 5 days by MTT assay; assay type: functional, organism-based
Human alphaherpesvirus 1 [6] = experiment: Antiviral activity against Human herpesvirus 1 infected Vero cells assessed as reduction in viral plaque at 10 ug/ml after overnight incubation by crystal violet staining; assay type: functional; set-up: scale not given: the % may be the effect or the level left
Hepatovirus A [7] = experiment: Antiviral activity against Hepatitis A virus infected Vero cells assessed as reduction in viral plaque at 20 ug/ml after overnight incubation by crystal violet staining; assay type: functional; set-up: scale not given: the % may be the effect or the level left
Vaccinia virus = experiment: Antiviral activity against Vaccinia virus infected in HEL cells assessed as inhibition of virus-induced cytopathic effect after 3 days by MTT assay; assay type: functional, organism-based; details: Orthopoxvirus vaccinia, 72 h
Coxsackievirus B4 [8] = experiment: Antiviral activity against Human coxsackievirus B4 infected HeLa cells assessed as inhibition of virus-induced cytopathic effect after 3 days by MTT assay; assay type: functional, organism-based; details: Enterovirus B, 72 h
[9] = Selectivity ratio of MCC for human HEL cells to EC50 for Vesicular stomatitis virus; assay type: ADME, cell-based
Coxsackievirus B4 [10] = experiment: Antiviral activity against Human coxsackievirus B4 infected Vero cells assessed as inhibition of virus-induced cytopathic effect after 3 days by MTT assay; assay type: functional, organism-based; details: Enterovirus B, 72 h
Human alphaherpesvirus 2 = experiment: Antiviral activity against Human herpesvirus 2 strain G infected HEL cells assessed as inhibition of virus-induced cytopathic effect after 3 days by MTT assay; assay type: functional, organism-based; details: Human alphaherpesvirus 2, strain G, 72 h
[11] = Cytotoxicity against Homo sapiens (human) HeLa cells after 3 days by microscopic analysis; assay type: cell-based
Sindbis virus = experiment: Antiviral activity against Sindbis virus infected Vero cells assessed as inhibition of virus-induced cytopathic effect after 3 days by MTT assay; assay type: functional, organism-based; details: 72 h
Human respirovirus 3 = experiment: Antiviral activity against Human parainfluenza virus 3 infected Vero cells assessed as inhibition of virus-induced cytopathic effect after 3 days by MTT assay; assay type: functional, organism-based; details: Human respirovirus 3, Vero, 72 h
Punta Toro virus = experiment: Antiviral activity against Punta Toro virus infected Vero cells assessed as inhibition of virus-induced cytopathic effect after 3 days by MTT assay; assay type: functional, organism-based; details: 72 h
[12] = Selectivity ratio of MCC for human HEL cells to EC50 for Vaccinia virus; assay type: ADME, cell-based
Human alphaherpesvirus 1 [13] = experiment: Antiviral activity against Human herpesvirus 1 strain KOS infected in HEL cells assessed as inhibition of virus-induced cytopathic effect after 3 days by MTT assay; assay type: functional, organism-based; details: Human alphaherpesvirus 1, KOS, 72 h
[14] = Selectivity ratio of MCC for human HEL cells to EC50 for Herpes simplex virus 1 KOS; assay type: ADME, cell-based
[15] = Cytotoxicity against Homo sapiens (human) HEL cells after 3 days by microscopic analysis; assay type: cell-based
[16] = system: Respiratory syncytial virus; experiment: Antiviral activity against Respiratory syncytial virus infected HeLa cells assessed as inhibition of virus-induced cytopathic effect after 3 days by MTT assay; assay type: functional, organism-based; details: human respiratory syncytial virus, 72 h
[17] = system: Vesicular stomatitis virus; experiment: Antiviral activity against Vesicular stomatitis virus infected HEL cells assessed as inhibition of virus-induced cytopathic effect after 3 days by MTT assay; assay type: functional, organism-based; details: 72 h
[18] = Selectivity ratio of MCC for human HEL cells to EC50 for acyclovir-resistant TK-deficient Hepres simplex virus 1 KOS; assay type: ADME, cell-based
Human alphaherpesvirus 1 [19] = experiment: Antiviral activity against acyclovir-resistant TK-deficient Hepres simplex virus 1 KOS infected in HEL cells assessed as inhibition of virus-induced cytopathic effect after 3 days by MTT assay; assay type: functional, organism-based; details: Human alphaherpesvirus 1, KOS, 72 h
[20] = system: Vesicular stomatitis virus; experiment: Antiviral activity against Vesicular stomatitis virus infected HeLa cells assessed as inhibition of virus-induced cytopathic effect after 3 days by MTT assay; assay type: functional, organism-based; details: 72 h
[21] = Selectivity ratio of MCC for human HEL cells to EC50 for Herpes simplex virus 2 G; assay type: ADME, cell-based
Reovirus sp. = experiment: Antiviral activity against Mammalian orthoreovirus 1 virus infected Vero cells assessed as inhibition of virus-induced cytopathic effect after 3 days by MTT assay; assay type: functional, organism-based; details: 72 h

Structure (SMILES) | MCC at 72 h [1] | Activity (Hepatovirus A [2]) [%] | Activity [3] | Activity (Human alphaherpesvirus 1 [4]) [%] | Activity [5] | Activity (Human alphaherpesvirus 1 [6]) [%] | Activity (Hepatovirus A [7]) [%] | EC50 (Vaccinia virus) | EC50 (Coxsackievirus B4 [8]) | EC50 (Coxsackievirus B4 [10]) | EC50 (Human alphaherpesvirus 2) | MCC at 72 h [11] | EC50 (Sindbis virus) | EC50 (Human respirovirus 3) | EC50 (Punta Toro virus) | EC50 (Human alphaherpesvirus 1 [13]) | MCC at 72 h [15] | EC50 [17] | EC50 (Human alphaherpesvirus 1 [19]) | EC50 (Reovirus sp.) | further results
Clc1ccc(C2=NOC(c3ccc(OCc4ccccc4)cc3)C2)cc1 (stereo not given) | > 100 µg/mL | 10 | inactive | 60 | inactive | 38 | 58 |  |  |  |  |  |  |  |  |  |  |  |  |  | 
Brc1ccc(C2=NN(c3ccccc3)C(c3ccc(OCc4ccccc4)cc3)C2)cc1 (stereo not given) | ≥ 20 µg/mL | 2 | inactive | 50 | inactive | 13.3 | 16 | > 20 µg/mL | > 20 µg/mL | > 20 µg/mL | > 20 µg/mL | 100 µg/mL | > 20 µg/mL | > 20 µg/mL | > 20 µg/mL | > 20 µg/mL | 100 µg/mL | > 20 µg/mL | > 20 µg/mL | > 20 µg/mL | selectivity ratio [9]: > 5; selectivity ratio [12]: > 5; selectivity ratio [14]: > 5; EC50 [16]: > 20 µg/mL; selectivity ratio [18]: > 5; EC50 [20]: > 20 µg/mL; selectivity ratio [21]: > 5
Nc1ccn(C[C@@H](CO)OCP(=O)(O)O)c(=O)n1 [CIDOFOVIR] |  |  |  |  |  |  |  |  |  |  | 5 µM |  |  |  |  | 3 µM | > 250 µM | > 250 µM |  |  | 
Nc1ncnc2c1ncn2C[C@H](O)CO [(S)-DHPA] | > 250 µM |  |  |  |  |  |  |  | > 250 µM | > 250 µM |  | > 250 µM | > 250 µM | > 250 µM | > 250 µM |  |  |  |  | > 250 µM | EC50 [16]: > 250 µM; EC50 [20]: > 250 µM
Clc1ccc(C2=NN(c3ccccc3)C(c3ccc(OCc4ccccc4)cc3)C2)cc1 (stereo not given) | 100 µg/mL | 0 | inactive | 43 | inactive | 19 | 21 | > 20 µg/mL | > 20 µg/mL | > 20 µg/mL | > 20 µg/mL | ≥ 20 µg/mL | > 20 µg/mL | > 20 µg/mL | > 20 µg/mL | > 20 µg/mL | 100 µg/mL | > 20 µg/mL | > 20 µg/mL | > 20 µg/mL | selectivity ratio [9]: > 5; selectivity ratio [12]: > 5; selectivity ratio [14]: > 5; EC50 [16]: > 20 µg/mL; selectivity ratio [18]: > 5; EC50 [20]: > 20 µg/mL; selectivity ratio [21]: > 5
Brc1ccc(C2=NOC(c3ccc(OCc4ccccc4)cc3)C2)cc1 (stereo not given) | ≥ 20 µg/mL | 7.3 | inactive | 67 | inactive | 26.1 | 21 |  |  |  |  |  |  |  |  |  |  |  |  |  | 
Cc1ccc(C2=NOC(c3ccc(OCc4ccccc4)cc3)C2)cc1 (stereo not given) | > 100 µg/mL | 27 | inactive | 79 | inactive | 45 | 46 |  |  |  |  |  |  |  |  |  |  |  |  |  | 
Nc1nc2c(ncn2COC(CO)CO)c(=O)[nH]1 [GANCICLOVIR] |  |  |  |  |  |  |  | > 100 µM |  |  | 0.08 µM |  |  |  |  |  | > 100 µM | > 100 µM | 6 µM |  | 
NC(=O)c1ncn([C@@H]2O[C@H](CO)[C@@H](O)[C@H]2O)n1 [RIBAVIRIN] | > 250 µM |  |  |  |  |  |  |  |  | > 250 µM | > 250 µM | > 250 µM | > 250 µM | 45 µM |  | > 250 µM | > 250 µM | > 250 µM | > 250 µM | > 250 µM | 
Cc1ccc(C2=NN(c3ccccc3)C(c3ccc(OCc4ccccc4)cc3)C2)cc1 (stereo not given) | 100 µg/mL | 14 | inactive | 58 | inactive | 31 | 39 | > 20 µg/mL | > 20 µg/mL | > 20 µg/mL | > 20 µg/mL | 100 µg/mL | > 20 µg/mL | > 20 µg/mL | > 20 µg/mL | > 20 µg/mL | 100 µg/mL | > 20 µg/mL | > 20 µg/mL | > 20 µg/mL | selectivity ratio [9]: > 5; selectivity ratio [12]: > 5; selectivity ratio [14]: > 5; EC50 [16]: > 20 µg/mL; selectivity ratio [18]: > 5; EC50 [20]: > 20 µg/mL; selectivity ratio [21]: > 5
c1ccc(COc2ccc(C3CC(c4ccccc4)=NO3)cc2)cc1 (stereo not given) | > 100 µg/mL | 0 | inactive | 15 | inactive | 3 | 2 |  |  |  |  |  |  |  |  |  |  |  |  |  | 
O=c1[nH]c(=O)n([C@H]2C[C@H](O)[C@@H](CO)O2)cc1/C=C/Br [BRIVUDINE] |  |  |  |  |  |  |  |  |  |  | 126 µM |  |  |  |  |  | > 250 µM | > 250 µM | > 250 µM |  | 
c1ccc(COc2ccc(C3CC(c4ccccc4)=NN3c3ccccc3)cc2)cc1 (stereo not given) | 100 µg/mL | 7 | inactive | 30 | inactive | 0 | 23 | > 20 µg/mL | > 20 µg/mL | > 20 µg/mL | > 20 µg/mL | 100 µg/mL | > 20 µg/mL | > 20 µg/mL | > 20 µg/mL | > 20 µg/mL | 100 µg/mL | > 20 µg/mL | > 20 µg/mL | > 20 µg/mL | selectivity ratio [9]: > 5; selectivity ratio [12]: > 5; selectivity ratio [14]: > 5; EC50 [16]: > 20 µg/mL; selectivity ratio [18]: > 5; EC50 [20]: > 20 µg/mL; selectivity ratio [21]: > 5
